The first test addresses T1, Peroxisome proliferator-activated receptor gamma (Rattus norvegicus) (UniProt O88275).
T1 sequence (whole entry): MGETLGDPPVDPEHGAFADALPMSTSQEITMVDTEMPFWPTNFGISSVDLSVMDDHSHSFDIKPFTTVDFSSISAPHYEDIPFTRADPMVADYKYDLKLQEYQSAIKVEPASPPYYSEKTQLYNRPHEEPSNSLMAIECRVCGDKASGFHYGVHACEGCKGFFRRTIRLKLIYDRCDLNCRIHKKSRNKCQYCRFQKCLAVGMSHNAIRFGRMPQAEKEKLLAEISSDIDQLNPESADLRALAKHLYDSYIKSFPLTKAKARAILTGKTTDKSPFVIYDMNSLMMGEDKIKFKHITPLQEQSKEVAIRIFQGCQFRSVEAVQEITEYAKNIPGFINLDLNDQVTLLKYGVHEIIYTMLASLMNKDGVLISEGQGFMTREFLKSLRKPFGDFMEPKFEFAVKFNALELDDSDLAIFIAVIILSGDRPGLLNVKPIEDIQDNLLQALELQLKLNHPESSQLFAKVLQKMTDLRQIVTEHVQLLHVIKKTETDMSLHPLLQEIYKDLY
Kind of test: Displacement of [3H]rosigliatzone from PPARgamma in rat adipocytes at 0.1 uM. In kind it is cell-based.
Regarding `O=C1C(O)=C(Cc2ccc(OCCOc3cccc4ccccc34)cc2)C(=O)c2ccccc21`, the Activity was less than 20%.

In turn, `O=C1C(O)=C(Cc2ccc(OCCOc3ccc(Cl)cc3)cc2)C(=O)c2ccccc21` returned an Activity of less than 20%.

Regarding `Cc1ccc(OCCOc2ccc(CC3=C(O)C(=O)c4ccccc4C3=O)cc2)cc1`, the Activity was less than 20%.

Regarding `O=C1C(O)=C(Cc2ccc(OCCOc3ccc4c(c3)CCC4)cc2)C(=O)c2ccccc21`, the Activity was less than 20%.

In a further test the target is T2, Peroxisome proliferator-activated receptor gamma (Rattus norvegicus, UniProt O88275).
T2 sequence (O88275 whole entry): T1 sequence (whole entry)
Kind of test: Displacement of [3H]rosigliatzone from PPARgamma in rat adipocytes. Format: cell-based.
Take `COc1ccc(OCCOc2ccc(CC3=C(O)C(=O)c4ccccc4C3=O)cc2)cc1`: the IC50 is 56200 nM. That is a double-digit micromolar value.

Compound `CCc1ccc(CCOc2ccc(CC3SC(=O)NC3=O)cc2)nc1` (centres undefined) [PIOGLITAZONE] had an IC50 of 700 nM.

`O=C1C(O)=C(Cc2ccc(OCc3ccccc3F)cc2)C(=O)c2ccccc21`: the 50% inhibitory concentration (IC50) is 200 nM.

Compound `O=C1C(O)=C(Cc2ccc(OCc3ccccc3)cc2)C(=O)c2ccccc21` came in with a 50% inhibitory concentration (IC50) of 3600 nM.

Compound `N#Cc1ccc(OCCOc2ccc(CC3=C(O)C(=O)c4ccccc4C3=O)cc2)cc1` had an IC50 of 1900 nM.

These data come from ChEMBL document CHEMBL1150396, “New PPARgamma ligands based on 2-hydroxy-1,4-naphthoquinone: computer-aided design, synthesis, and receptor-binding studies” (Bioorg Med Chem Lett, 2008).
